The target in data set [1] is T1, Integrin alpha-V/beta-6 (Homo sapiens, UniProt P06756+P18564). As to the kind of experiment: Inhibition of alpha-V-beta-6 integrin receptor in human 293 cells. Format: cell-based, HEK293.
For a further data set, the target named is Integrin alpha-V/beta-3 (Homo sapiens, UniProt P05106+P06756). As to the kind of experiment: Inhibition of alphaVbeta3 integrin receptor expressed in human 293 cells. Format: cell-based, HEK293.
For data set [2], the target named is T1, Integrin alpha-V/beta-6. As to the kind of experiment: Inhibition of alpha-V-beta-6 integrin receptor in human HT29 cells. It is filed as cell-based, HT-29.
A further data set deals with Mus musculus. As to the kind of experiment: Decrease in colon 26 tumor-induced hypercalcemia in BALB/c mouse at 100 mg/kg, ip twice daily. As to conditions: route intraperitoneal. Set-up: scale not given: the % may be the effect or the level left. It is filed as functional.
Data set [3] relates to M21. Description: Decrease in tumor weight in SCID mouse implanted with human M21 cells at 100 mg/kg, ip twice daily after 28 days relative to control. It is filed as functional. Particulars: route intraperitoneal. Set-up: scale not given: the % may be the effect or the level left.
The nature of data set [4]: Drug level in BALB/c mouse plasma after 6 hrs at 1 mg/kg, ip. Format: ADME, organism-based. Also on record: dose 1 mg/kg, route intraperitoneal. As to conditions: read-out: Drug uptake.
The test system of data set [5] is Colon 26. Description: Decrease in tumor volume in BALB/c mouse implanted with mouse colon 26 tumor cells at 100 mg/kg, ip twice daily after 21 days relative to control. It is filed as functional. Set-up: scale not given: the % may be the effect or the level left. Particulars: route intraperitoneal.
In data set [6] the test system is M21. Description: Inhibition of tumor growth in twice daily ip dosed SCID mouse implanted with human M21 cells after 28 days. It is filed as functional, organism-based.
Data set [7] in a line: Drug level in BALB/c mouse plasma after 6 hrs at 100 mg/kg, ip. Format: ADME, organism-based. Also on record: dose 100 mg/kg, route intraperitoneal. As to conditions: read-out: Drug uptake.
Data set [8] can be described thus: Bioavailability in mouse at 20 mg/kg, po. Format: ADME, organism-based. Particulars: in vivo.
Data set [9] concerns Colon 26. As to the kind of experiment: Decrease in tumor weight in BALB/c mouse implanted with colon 26 tumor cells at 100 mg/kg, ip twice daily after 21 days relative to control. Format: functional. Also on record: scale not given: the % may be the effect or the level left. As to conditions: route intraperitoneal.
In data set [10] the test system is M21. As to the kind of experiment: Decrease in tumor volume in SCID mouse implanted with human M21 cells at 100 mg/kg, ip twice daily after 28 days relative to control. It is filed as functional. Set-up: scale not given: the % may be the effect or the level left. As to conditions: route intraperitoneal.
In data set [11] the test system is Colon 26. As to the kind of experiment: Inhibition of tumor growth in twice daily ip dosed BALB/c mouse implanted with mouse colon 26 tumor cells after 21 days. Format: functional, organism-based.
Data set [12] in a line: Drug level in BALB/c mouse plasma after 6 hrs at 10 mg/kg, ip. Format: ADME, organism-based. Also on record: dose 10 mg/kg, route intraperitoneal. As to conditions: read-out: Drug uptake.
Data set [13] in a line: Half life in mouse at 20 mg/kg po or 10 mg/kg iv. It is filed as ADME, organism-based. Particulars: in vivo.

The source of these data is ChEMBL document CHEMBL1147945, “R-isomers of Arg-Gly-Asp (RGD) mimics as potent alphavbeta3 inhibitors” (Bioorg Med Chem, 2007).

Calls of active or inactive are those of the source. No cut-off for these calls is given here.

T1 sequence (P06756 31-889 limits assumed): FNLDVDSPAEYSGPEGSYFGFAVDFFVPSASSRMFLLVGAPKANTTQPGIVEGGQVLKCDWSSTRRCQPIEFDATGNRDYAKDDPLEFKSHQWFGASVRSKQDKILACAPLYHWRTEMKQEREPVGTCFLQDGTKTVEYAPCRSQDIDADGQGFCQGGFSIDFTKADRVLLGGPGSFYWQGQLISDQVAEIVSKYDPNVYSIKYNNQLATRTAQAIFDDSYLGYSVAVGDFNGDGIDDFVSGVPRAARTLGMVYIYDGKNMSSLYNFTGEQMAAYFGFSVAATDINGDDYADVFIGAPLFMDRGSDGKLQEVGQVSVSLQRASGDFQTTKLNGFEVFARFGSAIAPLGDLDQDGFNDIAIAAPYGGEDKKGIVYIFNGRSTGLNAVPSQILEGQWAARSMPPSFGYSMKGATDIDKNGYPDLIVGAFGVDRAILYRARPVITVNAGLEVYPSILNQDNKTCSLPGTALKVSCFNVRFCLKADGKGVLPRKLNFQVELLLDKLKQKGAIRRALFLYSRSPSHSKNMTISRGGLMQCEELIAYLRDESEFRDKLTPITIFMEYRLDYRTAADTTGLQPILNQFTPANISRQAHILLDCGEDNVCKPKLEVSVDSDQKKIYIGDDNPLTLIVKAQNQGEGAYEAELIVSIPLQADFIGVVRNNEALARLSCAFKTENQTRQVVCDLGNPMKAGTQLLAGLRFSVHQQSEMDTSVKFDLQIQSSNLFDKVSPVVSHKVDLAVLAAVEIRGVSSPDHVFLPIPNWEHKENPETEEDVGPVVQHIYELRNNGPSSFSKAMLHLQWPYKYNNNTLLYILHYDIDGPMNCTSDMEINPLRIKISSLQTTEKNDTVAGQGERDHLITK
T1 sequence (P06756 891-1048 limits assumed): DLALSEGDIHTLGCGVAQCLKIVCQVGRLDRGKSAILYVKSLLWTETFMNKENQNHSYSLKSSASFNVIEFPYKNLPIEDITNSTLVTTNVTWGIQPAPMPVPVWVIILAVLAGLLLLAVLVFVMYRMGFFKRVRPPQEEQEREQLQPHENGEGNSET
T1 sequence (P18564 22-788 limits assumed): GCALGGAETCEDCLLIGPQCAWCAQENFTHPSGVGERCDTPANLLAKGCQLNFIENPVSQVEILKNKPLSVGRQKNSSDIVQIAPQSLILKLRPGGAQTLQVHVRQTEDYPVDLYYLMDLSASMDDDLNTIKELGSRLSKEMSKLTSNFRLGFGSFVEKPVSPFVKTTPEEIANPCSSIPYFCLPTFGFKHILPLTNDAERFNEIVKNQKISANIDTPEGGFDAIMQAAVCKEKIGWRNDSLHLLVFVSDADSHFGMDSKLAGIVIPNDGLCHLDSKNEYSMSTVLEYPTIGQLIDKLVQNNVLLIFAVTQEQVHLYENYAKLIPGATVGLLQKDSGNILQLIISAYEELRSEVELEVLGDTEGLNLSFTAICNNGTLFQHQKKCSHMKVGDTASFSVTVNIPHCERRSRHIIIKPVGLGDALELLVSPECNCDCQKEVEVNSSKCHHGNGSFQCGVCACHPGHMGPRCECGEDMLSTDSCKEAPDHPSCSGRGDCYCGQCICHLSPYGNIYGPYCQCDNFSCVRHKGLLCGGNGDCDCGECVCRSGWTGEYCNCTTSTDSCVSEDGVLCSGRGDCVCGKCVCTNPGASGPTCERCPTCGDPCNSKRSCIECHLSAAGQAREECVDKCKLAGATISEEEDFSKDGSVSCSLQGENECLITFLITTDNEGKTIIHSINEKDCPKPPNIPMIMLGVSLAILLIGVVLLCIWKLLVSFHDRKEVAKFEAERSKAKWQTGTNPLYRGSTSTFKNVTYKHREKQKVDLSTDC
Integrin alpha-V/beta-3, sequence (P05106 27-788 limits assumed): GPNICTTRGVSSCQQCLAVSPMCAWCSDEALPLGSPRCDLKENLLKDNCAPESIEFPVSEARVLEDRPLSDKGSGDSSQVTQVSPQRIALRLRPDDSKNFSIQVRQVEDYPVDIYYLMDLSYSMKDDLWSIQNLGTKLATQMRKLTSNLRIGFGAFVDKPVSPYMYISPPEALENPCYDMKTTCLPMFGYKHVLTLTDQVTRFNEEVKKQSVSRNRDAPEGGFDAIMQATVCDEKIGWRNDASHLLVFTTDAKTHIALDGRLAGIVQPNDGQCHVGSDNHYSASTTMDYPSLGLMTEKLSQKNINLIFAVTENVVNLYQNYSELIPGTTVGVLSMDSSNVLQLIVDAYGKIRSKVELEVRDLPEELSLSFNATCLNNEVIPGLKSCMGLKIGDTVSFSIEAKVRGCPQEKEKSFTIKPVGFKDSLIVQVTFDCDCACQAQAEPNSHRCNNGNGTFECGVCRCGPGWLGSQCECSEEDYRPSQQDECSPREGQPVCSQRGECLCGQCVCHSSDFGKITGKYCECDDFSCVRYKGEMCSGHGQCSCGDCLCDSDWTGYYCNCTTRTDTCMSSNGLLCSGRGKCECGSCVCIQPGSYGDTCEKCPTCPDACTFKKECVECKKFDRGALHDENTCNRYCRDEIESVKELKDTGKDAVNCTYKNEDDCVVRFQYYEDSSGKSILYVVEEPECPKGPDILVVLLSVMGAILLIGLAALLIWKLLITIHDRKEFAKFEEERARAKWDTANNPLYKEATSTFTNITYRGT
Integrin alpha-V/beta-3, sequence (P06756 31-889 limits assumed): as the sequence (P06756 31-889 limits assumed) above
Integrin alpha-V/beta-3, sequence (P06756 891-1048 limits assumed): as the sequence (P06756 891-1048 limits assumed) above

One may read the IC50 as the concentration that gives 50% inhibition. In the case of `O=C(O)C[C@@H](NC(=O)CNC(=O)c1cncc(NC2=NCC(O)CN2)c1)c1cc(Cl)cc(I)c1O` (stereo partly drawn), the IC50 against Integrin alpha-V/beta-6 [1] came to 622 nM; at Integrin alpha-V/beta-3, 1 nM.
In the case of `O=C(O)C[C@@H](NC(=O)CNC(=O)c1cccc(NC2=NCCCN2)c1)c1cc(Cl)cc(Cl)c1O`, the IC50 at Integrin alpha-V/beta-6 [2] turned out to be 24 nM; against Integrin alpha-V/beta-3, 4 nM.
`O=C(O)C[C@@H](NC(=O)CNC(=O)c1cncc(NC2=NCC(F)CN2)c1)c1cc(Cl)cc(Cl)c1O` (stereo partly drawn): the half-inhibitory concentration (IC50) was determined as 14 nM against Integrin alpha-V/beta-6 [2] and 1 nM at Integrin alpha-V/beta-3.
In the same order, the values of `O=C(O)C[C@@H](NC(=O)CNC(=O)c1cc(O)cc(NC2=NCCCN2)c1)c1cc(Cl)cc(Br)c1O` are 2740 nM and 10 nM.
In the same order, the values of `O=C(O)C[C@@H](NC(=O)CNC(=O)c1cncc(NC2=NCC(O)CN2)c1)c1cc(Br)cc(Cl)c1O` (stereo partly drawn) are 22800 nM and 1 nM.
In the same order, the values of `O=C(O)C[C@@H](NC(=O)CNC(=O)c1cc(O)cc(N=C2NCCCN2)c1)c1cc(Br)cc(Br)c1O` are 204 nM and 20 nM.
Usually bioavailability stands for the share of a dose that reaches the circulation, judged against a reference dose that is usually intravenous. One may read the half-life as how long it takes for the measured level to halve. As to `O=C(O)C[C@@H](NC(=O)CNC(=O)c1cc(O)cc(NC2=NCC(F)CN2)c1)c1cc(Cl)cc(Br)c1O` (stereo partly drawn), the Activity in the data set on Mus musculus is 64%; with M21 [3], 53%; in the data set with Colon 26 [5], 60%; in the data set with M21 [6], “Dose-dependent effect”; in the data set with Colon 26 [9], 55%; in the data set with M21 [10], 62%. The concentration at 6 h in [4] is 3300 ng/mL; in data set [7], 84400 ng/mL; in [12], 19400 ng/mL. Moreover, the results for the half-maximal inhibitory concentration (IC50) at Integrin alpha-V/beta-6 [2] and against Integrin alpha-V/beta-3 were 366 nM and 1 nM, respectively. The compound also displayed a bioavailability in data set [8] of 5.9%. Further, the outcome in the data set with Colon 26 [11] was Active. The half-life in data set [13] is 2 h.
As to `O=C(O)C[C@H](NC(=O)CNC(=O)c1cc(O)cc(N=C2NCC(F)CN2)c1)c1cc(Cl)cc(Br)c1O` (stereo partly drawn), the half-inhibitory concentration (IC50) against Integrin alpha-V/beta-3 is 0.6 nM. The bioavailability in data set [8] is 13.6%. Moreover, the half-life in data set [13] is 5.1 h.
As to `O=C(O)C[C@@H](NC(=O)CNC(=O)c1cc(O)cc(NC2=NCC(O)CN2)c1)c1cc(Br)cc(Cl)c1O` (stereo partly drawn), the IC50 was found to be 588 nM against Integrin alpha-V/beta-6 [2] and 7 nM against Integrin alpha-V/beta-3.
The like results for `O=C(O)C[C@@H](NC(=O)CNC(=O)c1cccc(N=C2NCC(F)CN2)c1)c1cc(Cl)cc(Cl)c1O` (stereo partly drawn) were, in that order, 16 nM and 1 nM.
In the same order, the values of `Nc1cc(NC2=NCC(O)CN2)cc(C(=O)NCC(=O)N[C@H](CC(=O)O)c2cc(Cl)cc(I)c2O)c1` (stereo partly drawn) are 12300 nM and 0.3 nM.
In the same order, the values of `O=C(O)C[C@@H](NC(=O)CNC(=O)c1cccc(NC2=NCCCN2)c1)c1cc(Cl)cc(Br)c1O` are 6540 nM and 5 nM.
For the compound `O=C(O)C[C@@H](NC(=O)CNC(=O)c1cc(O)cc(NC2=NCC(F)CN2)c1)c1cc(Cl)cc(Cl)c1O` (stereo partly drawn), the IC50 stood at 42 nM against Integrin alpha-V/beta-6 [2] and 1 nM against Integrin alpha-V/beta-3.
In the same order, the values of `O=C(O)C[C@@H](NC(=O)CNC(=O)c1cccc(N=C2NCC(F)CN2)c1)c1cc(Cl)cc(Br)c1O` (stereo partly drawn) are 1420 nM and 1 nM.
For the compound `O=C(O)C[C@@H](NC(=O)CNC(=O)c1cc(O)cc(NC2=NCCCN2)c1)c1cc(Br)cc(Cl)c1O`, the figures for the IC50 at Integrin alpha-V/beta-6 [2] and against Integrin alpha-V/beta-3 were 151 nM and 10 nM, respectively.
As for `O=C(O)C[C@@H](NC(=O)CNC(=O)c1cc(O)cc(NC2=NCCCN2)c1)c1cc(Cl)cc(I)c1O`, the results for the IC50 against Integrin alpha-V/beta-6 [1] and on Integrin alpha-V/beta-3 were 1780 nM and 9 nM, respectively.
As for `O=C(O)C[C@@H](NC(=O)CNC(=O)c1cccc(NC2=NCCCN2)c1)c1cc(Br)cc(Cl)c1O`, the half-maximal inhibitory concentration (IC50) against Integrin alpha-V/beta-6 [2] was 88 nM; against Integrin alpha-V/beta-3 it was 8 nM.
In the same order, the values of `O=C(O)C[C@@H](NC(=O)CNC(=O)c1cccc(NC2=NCC(O)CN2)c1)c1cc(Br)cc(Cl)c1O` (stereo partly drawn) are 48 nM and 8 nM.
For the compound `Nc1cc(NC2=NCC(O)CN2)cc(C(=O)NCC(=O)N[C@H](CC(=O)O)c2cc(Br)cc(Br)c2O)c1` (stereo partly drawn), the IC50 against Integrin alpha-V/beta-6 [2] amounted to 2790 nM; on Integrin alpha-V/beta-3, 7 nM.
In the same order, the values of `Nc1cc(NC2=NCC(F)CN2)cc(C(=O)NCC(=O)N[C@H](CC(=O)O)c2cc(Cl)cc(Br)c2O)c1` (stereo partly drawn) are 3440 nM and 3 nM.
